US12708620B2, “Prodrugs and medical uses thereof” (priority 2018, dated 2026)

Tested on: MiaPaCa-2 tumor xenograft
Assay: pancreatic cancer xenograft model
Type: in vivo, BALB/c Nude Mice
Settings: MiaPaCa-2 xenograft, 600 mg/kg IP, hypoxic status absent, methanesulfonate
Experimental: All animal models were established as xenograft model in BALB/c Nude Mice (6-8 weeks old, 17-23 grams, maintained in standard conditions and diet), following approved IACUC (Institutional Animal Care and Use Committees) protocols. Cpd.11 Ms was formulated using 2% dimethyl sulfoxide (DMSO in water for injection, starting from a Cpd.11 Ms main preparation (100-60 mg/ml in 2% DMSO in water for injection).
After tumor cell inoculation, the animals were checked daily for morbidity and mortality. Before commencement of treatment all animals were weighed and the tumor volumes were measured using a caliper. The treatments were started when the mean tumor size reached approx. 250 mm^3. […] At the time of routine monitoring, the animals were checked for any effects of tumor growth and treatments on normal behavior such as mobility, visual estimation of food and water consumption, body weight gain/loss (body weights were measured daily during the 5-day treatment and thrice weekly after treatment), eye/hair matting and any other abnormal effect. Death and observed clinical signs were recorded on the basis of the numbers of animals within each subset. […] The surrogate endpoint for survival was calculated and indicated as TVx4 (initial tumor volume times 4). […] All data were analyzed in SPSS (Statistical Product and Service Solutions) version 18.0 (IBM, Armonk, NY, U.S.). […]

## CCN1CCN(C(=O)c2cc(N(CCBr)CCOS(C)(=O)=O)c(S(C)(=O)=O)cc2[N+](=O)[O-])CC1.CS(=O)(=O)O [Cpd.11 Ms, 4-(5-((2-bromoethyl) (2-((methylsulfonyl)oxy)ethyl)amino)-4-(methylsulfonyl)-2-nitrobenzoyl)-1-ethylpiperazin-1-ium methanesulfonate]
Listed as Cpd.11Ms
  Anti-tumor effect: No impact
  Anti-tumor effect: not observed
